Measurements: publication PMC5447021, “TNF Lectin-Like Domain Restores Epithelial Sodium Channel Function in Frameshift Mutants Associated with Pseudohypoaldosteronism Type 1B” (Frontiers in Immunology, 2017)

Experiments:
[1] = system: αF435fs (co-expressed with βγ-ENaC); test: Whole-cell patch clamp, αF435fs + WT βγ; format: cell-based, human; conditions: read-out: EC50, solnatide, HEK-293, whole-cell, -100 mV, n = 7
Method: Point mutations of α-, β-, γ- and δ-hENaC and PHA1B frameshift mutations of α-hENaC were prepared with the QuikChange Lightning Site-Directed Mutagenesis Kit (Agilent Technologies, CA, USA). Mutagenic primers were designed individually with the Primer Design Program provided on the producer’s website or for the frameshift mutations the same base changes as reported in patients (see Table 2) were performed. Primers were ordered from Sigma-Aldrich, Vienna, Austria.
HEK-293 cells were transfected 1 day after cell seeding using X-tremeGENE HP DNA transfection reagent (Roche Diagnostics, Mannheim, Germany) according to the manufacturer’s protocol. A set of WT or mutant αβγ- or δβγ-hENaC, or α-, β-, γ-, or δ-hENaC alone was used, and the ratio of DNA to transfection reagent was 1:3. The expression was highest 48–72 h after transfection.
Electrophysiological experiments were performed as described in detail by Shabbir et al. ([16]). […] Currents were recorded with the patch clamp method in the whole-cell mode. The chamber contained 1 ml of the bath solution of the following composition (in mM): 145 NaCl, 2.7 KCl, 1.8 CaCl2, 2 MgCl2, 5.5 glucose, and 10 HEPES, adjusted to pH 7.4 with 1 M NaOH solution. Micropipettes were pulled from thin-walled borosilicate glass capillaries (Harvard Apparatus, Holliston, MA, USA) with a DMZ Zeitz Puller to obtain electrode resistances ranging from 2 to 5 MΩ. […]

[2] = system: αT169fs; test: Membrane abundance of αT169fs; format: cell-based, human; conditions: 200 nM, relative to WT control (=1)
Method: (§1) Cell surface biotinylation was performed as previously described ([26]). In brief, A549 cells or transiently transfected HEK-293 cells were grown in 10 cm dishes in 37°C, 5% CO2 incubator in DMEM medium supplemented with 5% FBS. […] Medium was aspirated, and then cells were washed twice with 10 ml ice-cold phosphate-buffered saline (PBS), covered with 2.5 mg EZ-Link Sulfo-NHS-SS-Biotin (Thermo Scientific, Rockford, USA), dissolved in 10 ml ice-cold PBS, and incubated at 4°C with gentle agitation for 30 min. Fifty milliliters of quenching solution were added to cells; then cells were scraped in solution and transferred to fresh 50 ml tube. Cell suspension was centrifuged at 500 × g for 3 min. Supernatant was discarded, and 5 ml of Tris-buffered saline (TBS) was added to the cell pellet. The cell pellet was resuspended and centrifuged at 500 × g for 3 min. Supernatant was discarded and cell pellet was resuspended in lysis buffer containing protease inhibitor cocktail (10 µM pepstatin A, 10 µM phenylmethylsulfonyl fluoride, and 10 µM leupeptin) and transferred to fresh 1.5 ml centrifuge tube. Cell pellet was then homogenized on ice by ultrasonication using 1 s bursts and incubated on ice for at least 30 min. Intact cells and nuclei were pelleted by centrifugation at 10,000 × g for 2 min under cooling conditions. […] Exposed films were scanned and quantified using ImageJ (NIH, MD, USA). […]

[3] = system: αF435fs; test: Membrane abundance of αF435fs; format: cell-based, human
Method: as §1, with “conditions. Pellet was then discarded and supernatant was transferred to fresh tube, incubated overnight with 0.5 ml NeutrAvidin Agarose under gentle rotation at 4°C and centrifuged at 500 × g for 5 min under cooling conditions. Supernatant was then discarded and the pellet washed twice with 200 µl lysis buffer. The biotinylated proteins were eluted with 100 µl sodium dodecyl sulfate (SDS) sample buffer (62.5 mM Tris, pH 6.8, 1% SDS, 10% glycerine, 50 mM dithiothreitol) containing 10 µM E64 at 65°C for 10 min. Sample was then centrifuged at 500 × g for 2 min. Pellet was discarded and supernatant subjected to protein electrophoresis and immunoblotting.” for “conditions.”

[4] = system: αL576Xβγ-ENaC; conditions: cited from earlier work

With `C[C@@H]1NC(=O)CNC(=O)[C@H](CCC(=O)O)NC(=O)[C@@H]2CCCN2C(=O)[C@H]([C@@H](C)O)NC(=O)[C@H](CCC(=O)O)NC(=O)[C@H](CCCNC(=N)N)NC(=O)[C@H](CCC(N)=O)NC(=O)CNC(=O)[C@@H](N)CSSC[C@@H](C(=O)O)NC(=O)[C@H](Cc2ccc(O)cc2)NC(=O)[C@H](Cc2c[nH]c3ccccc23)NC(=O)[C@@H]2CCCN2C(=O)[C@H](CCCCN)NC(=O)[C@H](C)NC(=O)[C@H](CCC(=O)O)NC1=O` [solnatide, L-cysteine, L-cysteinylglycyl-L-glutaminyl-L-arginyl-L-α-glutamyl-L-threonyl-L-prolyl-L-α-glutamylglycyl-L-alanyl-L-α-glutamyl-L-alanyl-L-lysyl-L-prolyl-L-tryptophyl-L-tyrosyl-, cyclic (1→17)-disulfide] the EC50 [1] was 64.6 ± 8.7 nM, the “Membrane abundance, solnatide 5 min” value ([2]; 5 min, own control 0.54 ± 0.06, p < 0.001 vs control) was 0.80 ± 0.03 and the “Membrane abundance, solnatide 10 min” value ([2]; 10 min, own control 0.54 ± 0.06) was 0.46 ± 0.09. The “Membrane abundance, solnatide 5 min” value ([3]; 200 nM, 5 min, relative to WT control (=1), own control 2.37 ± 0.15, p < 0.001 vs control) was 3.71 ± 0.20, the “Membrane abundance, solnatide 10 min” value ([3]; 200 nM, 10 min, relative to WT control (=1), own control 2.37 ± 0.15, p < 0.01 vs control) was 2.82 ± 0.17 and the “Membrane abundance after solnatide” value ([3]; HEK-293) was “the membrane abundance increasing even further following exposure to solnatide”. For the same molecule, the “Effect of solnatide on amiloride-sensitive current” value [4] was “a residual albeit non-significant increase in the amiloride-sensitive current” and the “Current increase, glycosylation sites removed” value ([4]; glycosylation sites in extracellular loop removed by mutation) was “small increase was not seen”.
